Test results published in US11744837B2, “Use of cortisol in assessment and prophylactic treatment of hypokalemia associated with glucocorticoid receptor modulator treatment of Cushing's syndrome patients” (Corcept Therapeutics, Inc., priority 2018, dated 2023).
Where two headings read alike, the source gives them in different places.

Legend:
healthy volunteers = assay: Previous clinical studies in healthy volunteers: adverse events; type: in vivo, human
From the text: Hypokalemia and rash appear to be more common in subjects receiving mifepristone than in the control groups.

ACTH = ACTH levels during mifepristone treatment of Cushing's syndrome patients; type: in vivo, human
From the text: (§1) The term “measuring the level,” in the context of cortisol, ACTH, mifepristone, or other compounds, refers to determining, detecting, or quantitating the amount, level, or concentration of, for example, cortisol, ACTH, mifepristone, or other compound in a sample obtained from a subject. Plasma or serum samples are often used for measuring ACTH or cortisol level.
(§2) The types of samples that are suitable for ACTH determination can be serum, plasma, saliva, urine, or any other biological fluid taken from a subject. In preferred embodiments, the sample is a serum sample, or is a plasma sample. The level of ACTH can be measured using various methods, including but not limited to, immunoassays, e.g., competitive immunoassay, radioimmunoassay (MA), immunofluorometric enzyme assay, and ELISA; competitive protein-binding assays; liquid chromatography (e.g., HPLC); and mass spectrometry, e.g., high-performance liquid chromatography/triple quadrupole-mass spectrometry (LC-MS/MS). Commercial kits for measuring ACTH are readily available, e.g., from Mayo clinic (Test ID: ACTH), Siemens Healthcare Global (Immulite® 2000 ACTH assay), and Roche Molecular Diagnostics (Catalog No. 03255751190). In preferred embodiments, ACTH levels are measured using a radioimmunoassay (RIA), most preferable a two-site MA, such as performed by Quest Diagnostics (Secaucus, N.J. 07094).
(§3) Dosing Schedule Dosing was started with 300 mg of mifepristone once per day for 14 days. After 14 days, if no clinical improvement was seen but the drug was well tolerated, the dose of mifepristone was increased to 600 mg once per day. After 4 weeks of dosing at 600 mg once per day, if no clinical improvement was seen but the drug was well tolerated, the dose was increased to 900 mg once per day. Dose escalation was based on weight with the maximum dose no higher than 20 mg/kg/day. […] After 4 weeks of dosing at 900 mg once per day, if no clinical improvement was seen but the drug was well tolerated, the dose was increased to 1200 mg once per day. Study duration was 24 weeks.
(§4) Potassium levels were obtained on every subject at either screening or the pre-drug administration baseline visit, and then also at every scheduled post-baseline visit. Potassium levels post-baseline were therefore obtained as early as day 7 and through day 210 (week 30 was the last visit and was the 6 week follow-up visit). ACTH, and cortisol were measured at six visits (week 2 (day 14), week 6 (day 42), week 10 (day 70), week 16 (day 112), and week 24 (day 168) week 6 follow-up (day 210)).

cortisol [1] = assay: 24-hour urine cortisol during mifepristone treatment of Cushing's syndrome patients; type: in vivo, human
Experimental: as §3, §4

[2] = tested on: psychotic major depression (PMD) subjects; assay: Double blind psychotic major depression (PMD) trials: hypokalemia; type: in vivo, human; conditions: completed double blind PMD trials
From the text: (§5) Clinically meaningful hypokalemia (<3.1) has been reported in 16 of 821 (1.9%) mifepristone treated subjects (12 in completed double blind PMD trials, and 4 in a completed Alzheimer's trial), and in 5 of 626 (0.8%) placebo treated subjects in completed PMD trials.

cortisol [3] = assay: Total serum cortisol during mifepristone treatment of Cushing's syndrome patients; type: in vivo, human
From the text: as §1
as §2, with “cortisol” for “ACTH”, “(LC-MS/MS).” for “(LC-MS/MS). Commercial kits for measuring ACTH are readily available, e.g., from Mayo clinic (Test ID: ACTH), Siemens Healthcare Global (Immulite® 2000 ACTH assay), and Roche Molecular Diagnostics (Catalog No. 03255751190).”, “LC-MS/MS,” for “a radioimmunoassay (RIA), most preferable a two-site MA,”
Dosing Schedule Dosing was started with 300 mg of mifepristone once per day for 14 days. After 14 days, if no clinical improvement was seen but the drug was well tolerated, the dose of mifepristone was increased to 600 mg once per day. After 4 weeks of dosing at 600 mg once per day, if no clinical improvement was seen but the drug was well tolerated, the dose was increased to 900 mg once per day. Dose escalation was based on weight with the maximum dose no higher than 20 mg/kg/day. […]
as §4, with “Potassium levels post-baseline were therefore obtained as early as day 7 and through day 210 (week 30 was the last visit and was the 6 week follow-up visit).” left out

[4] = tested on: subjects in an Alzheimer's study; assay: Alzheimer's study: hypokalemia; type: in vivo, human
From the text: as §5

[5] = tested on: mifepristone treated subjects (PMD and Alzheimer's trials); assay: Completed PMD and Alzheimer's trials together: clinically meaningful hypokalemia; type: in vivo, human; conditions: 16 of 821 mifepristone treated subjects
From the text: as §5

[6] = tested on: Cushing's syndrome patients; conditions: cited from earlier work
[7] = tested on: Cushing's syndrome patients; conditions: in vivo
Experimental: The risk of experiencing at least one episode of hypokalemia (potassium level <3.5 mEq/L) after 7 to 14 Days of exposure to KORLYM (mifepristone) was evaluated using stepwise multivariable logistic regression and single-variable logistic regression models. The following independent factors were evaluated for potential association with hypokalemia based on the biology of the disease: total cortisol at Day 1, ACTH at Day 1, and potassium level at Day 1.
The risk of experiencing at least one episode of hypokalemia (potassium level <3.5 mmol/L) after 28 Days of exposure to KORLYM was evaluated using stepwise multivariable logistic regression and single-variable logistic regression models. The following independent factors were evaluated for potential association with hypokalemia based on the biology of the disease: total cortisol at Day 1 and Day 14 (cort_01 and cort_14), ACTH at Day 1 and Day 14 (ACTH_01 and ACTH_14), and potassium levels at Day 1 and Day 14 (K_01 and K_14).
Patients were defined to have severe/recurrent hypokalemia for this analysis if they had at least one value of potassium of 2.5 mmol/L or lower, or if they had recurrent hypokalemia (hypokalemia occurring during multiple visits after Day 14 visit).
The Cushing's syndrome study reported herein was conducted in accordance with the Declaration of Helsinki and Good Clinical Practice (GCP) according to International Conference on Harmonization (ICH) guidelines.
as §3
Serum electrolytes, including potassium, were measured regularly throughout the study period.
as §4

[8] = 43 subjects with Cushing's disease
[9] = patients who did not experience hypokalemia

CC#C[C@]1(O)CC[C@H]2[C@@H]3CCC4=CC(=O)CCC4=C3[C@@H](c3ccc(N(C)C)cc3)C[C@@]21C [mifepristone, 11β-(4-dimethylaminophenyl)-17β-hydroxy-17α-(1-propynyl)-estra-4,9-dien-3-one]
frequently reported adverse events (healthy volunteers; mifepristone administered to healthy volunteers): headache, gastrointestinal symptoms including diarrhea, nausea and vomiting, and rash | Hypokalemia and rash compared with the control groups (healthy volunteers; subjects receiving mifepristone): more common | change of ACTH during mifepristone treatment (ACTH; [8]): increased about two-fold | Ratio of ACTH Visit Change Values from Baseline per Baseline (ACTH_CHG/ACTH Baseline), Mean ± SD (ACTH; Day 42, Hypokalemic (N 6)): 2.50 ± 0.61 (6) | Ratio of ACTH Visit Change Values from Baseline per Baseline (ACTH_CHG/ACTH Baseline), Mean ± SD (ACTH; Day 168, Hypokalemic (N 5)): 3.30 ± 2.54 (5) | rise of ACTH levels following an initial increase in mifepristone dose (FIG. 1) (ACTH; [9]): about 25 pg/mL | 24 Hour Urine Cortisol (nmol/24 hr)/ACTH Ratio Visit Values, Mean ± SD (cortisol [1]; Day 42, Non-Hypokalemic (N 35)): 7.9 ± 6.0 (35) | 24 Hour Urine Cortisol (nmol/24 hr)/ACTH Ratio Visit Values, Mean ± SD (cortisol [1]; Day 70, Non-Hypokalemic (N 30)): 17.0 ± 32.7 (30) | 24 Hour Urine Cortisol (nmol/24 hr)/ACTH Ratio Visit Values, Mean ± SD (cortisol [1]; Day 112, Non-Hypokalemic (N 23)): 9.6 ± 16.3 (23) | ratios of 24-hour urine cortisol values divided by ACTH values (cortisol [1]; patients experiencing hypokalemia): greater than 20 | ratios of 24-hour urine cortisol values divided by ACTH values (cortisol [1]; [9]): less than 20 | 24 hour urine cortisol levels (cortisol [1]; patients who did not experience hypokalemia, at all times during mifepristone treatment): below 1700 nmol/24 hr | 24-hour urine cortisol levels (cortisol [1]; patients who experienced hypokalemia): above 2000 nmol/24 hr | change in 24-hour urine cortisol levels as compared to baseline (cortisol [1]; patients who experienced hypokalemia, day 42): greater than 600 nmol/24 hr | subjects with clinically meaningful hypokalemia (<3.1) [2]: 12 | change of serum cortisol during mifepristone treatment (cortisol [3]; [8]): increased to a smaller degree | total serum cortisol levels (cortisol [3]; patients who did not experience hypokalemia, early on during mifepristone treatment (e.g., day 14 and/or day 42)): below 1000 nmol/L | total serum cortisol levels (cortisol [3]; patients who experienced hypokalemia, early on during mifepristone treatment (e.g., day 14 and day 42)): above 1000 nmol/L | subjects with clinically meaningful hypokalemia (<3.1) ([4]; completed Alzheimer's trial): 4 | subjects with hypokalemia in the range of 2.8 to 3.5 mEq/L ([4]; out of 33 subjects, 300 mg per day of mifepristone for 16 weeks): 9 | Clinically meaningful hypokalemia (<3.1) [5]: 1.9% | patients with serum potassium levels less than 3.5 mEq/L ([6]; of 43 Cushing's syndrome patients treated with mifepristone): 22 | patients with serum potassium levels less than 2.5 mEq/L (severe hypokalemia) ([6]; of the 22 of 43 patients with potassium <3.5 mEq/L): 3 | Severe/Recurrent Hypokalemia ([7]; both, human): 9 (20.0) n (%) | developed hypokalemia on or after Day 28 ([7]; both, human): 6.7% | developed severe/recurrent hypokalemia on or after Day 28 ([7]; both, human): 6.7% | subjects with a Potassium value ≤3.5 mmol/L at any of the six visits ([7]; both, human): 21 | subjects with a Potassium value ≤3.5 mmol/L at any post-baseline visit ([7]; both, human): 23 | Number with Hypokalemia (%) (Potassium ≤ 3.4 mEq/L) ([7]; both, human, 6 weeks): 7 (14%) | Number with Hypokalemia (%) (Potassium ≤ 3.4 mEq/L) ([7]; both, human, 8 weeks): 4 (8%) | Number with Hypokalemia (%) (Potassium ≤ 3.4 mEq/L) ([7]; both, human, 10 weeks): 4 (8%) | Number with Hypokalemia (%) (Potassium ≤ 3.4 mEq/L) ([7]; both, human, 12 weeks): 3 (6%) | Number with Severe Hypokalemia (%) (Potassium ≤ 2.5 mEq/L) ([7]; both, human, 12 weeks): 1 (2%) | Number with Hypokalemia (%) (Potassium ≤ 3.4 mEq/L) ([7]; both, human, 16 weeks): 5 (10%) | Number with Severe Hypokalemia (%) (Potassium ≤ 2.5 mEq/L) ([7]; both, human, 16 weeks): 1 (2%) | Number with Hypokalemia (%) (Potassium ≤ 3.4 mEq/L) ([7]; both, human, 20 weeks): 1 (2%) | Decreased potassium observed during at least one visit ([7]; both, human, 24 weeks): about 30% | Number with Hypokalemia (%) (Potassium ≤ 3.4 mEq/L) ([7]; both, human, 24 weeks): 4 (8%) | developed hypokalemia after dosing with KORLYM ([7]; both, human, 24 weeks): 42.9% | Number with Hypokalemia (%) (Potassium ≤ 3.4 mEq/L) ([7]; both, human, 30 weeks): 3 (6%) | Number with Severe Hypokalemia (%) (Potassium ≤ 2.5 mEq/L) ([7]; both, human, 30 weeks): 1 (2%) | Number with Hypokalemia (%) (Potassium ≤ 3.4 mEq/L) ([7]; both, human, 1 day): 2 (4%) | Number with Hypokalemia (%) (Potassium ≤ 3.4 mEq/L) ([7]; both, human, 7 day): 2 (4%) | Number with Hypokalemia (%) (Potassium ≤ 3.4 mEq/L) ([7]; both, human, 14 day): 8 (16%) | Number with Severe Hypokalemia (%) (Potassium ≤ 2.5 mEq/L) ([7]; both, human, 14 day): 1 (2%) | share of subjects with a Potassium value ≤3.5 mmol/L as early as day 14, all post-baseline values ([7]; both, human, 14 days): 48% | share of those subjects with a Potassium value ≤3.5 mmol/L as early as day 14 ([7]; both, human, 14 days): 38% | Number with Hypokalemia (%) (Potassium ≤ 3.4 mEq/L) ([7]; both, human, 28 day): 10 (20%) | Number of Subjects Hypokalemic <=3.5 mmol/L ([7]; both, human, 210 day): 3 | Number of Subjects Non-Hypokalemic >3.5 mmol/L ([7]; both, human, 210 day): 37 | patients with at least one potassium value of 2.5 mmol/L or lower [7]: two | severity of hypokalemia [7]: generally mild to moderate | subjects with a day 7 Potassium value ≤3.5 mmol/L [7]: three
